# Assay results: PMC7979765, “trans-Translation inhibitors bind to a novel site on the ribosome and clear Neisseria gonorrhoeae in vivo” (Nature Communications, 2021)
# Where “and” joins values, the source holds several entries; their conditions need not be identical. Equal entries are not always repeated.
# Experiments:
# [1] = Liver microsome stability, murine; type: in vitro ADME, mouse; conditions: murine liver microsomes; for Average MLMS t½: average of replicates; for MLMS t½: individual replicates
# Description: To examine potential for first-pass metabolism of analogs in the liver, the stability of analogs in the presence of liver microsome preparations (Eurofins Discovery for human, dog and rat; Xenotech for mouse) was measured using the method of Kuhnz, et al.[50]. for murine studies and Oback for the dog, human and rat studies. The amount of parent compound remaining after incubation with microsomes in the presence of NADPH over a 30 min time range was measured using a reverse-phase liquid chromatography/mass spectroscopy method that was customized for each compound. Half-lives were calculated using linear regression analysis of several time points.
# [2] = Aqueous solubility (nephelometric); type: physicochemical; conditions: for Solubility: single replicates
# Escherichia coli = assay: microbe, parasite or virus in culture; type: cell-based; conditions: E. coli KLE701 (ΔtolC::tet); source data, individual replicates
# Neisseria gonorrhoeae = assay: MIC, microbroth dilution, G77L medium; type: cell-based; conditions: Neisseria gonorrhoeae ATCC 49226; source data, individual replicates
# HeLa cells [3] = assay: Mammalian cell cytotoxicity (CC50); type: cell-based, human; conditions: one value per replicate
# HeLa cells [4] = assay: Mammalian cell cytotoxicity (CC50); type: cell-based, human; conditions: HeLa, replicates
# Description: The half maximal cytotoxic concentration (CC50) of each compound against HeLa cells (ATCC CCL-2) was measured as previously described. […] The mean values for each biological replicate were averaged, and the CC50 was determined using a 4-parameter nonlinear curve fitting algorithm (GraphPad Prism). The average of the CC50s from two biological replicates was calculated and reported.
# trans-translation = assay: microbe, parasite or virus in culture; type: cell-based, Escherichia coli; conditions: Eco Luc reporter, one value per replicate; read-out: IC50
# Description: To verify that MBX-4132 retains activity as an inhibitor of trans-translation, we measured its dose-dependent activity against the non-stop luciferase reporter assay strain E. coli SB75 ΔtolC::kan (pluc-trpAt) essentially as described, with modifications. Briefly, serial 1.5-fold dilutions of MBX-4132 in DMSO were transferred to 96-well assay plates (Costar 3195), followed by the addition of 50 µl of an overnight culture of SB75 ΔtolC::kan (pluc-trpAt) that had been diluted to a final OD600 of 0.4 with LB media supplemented with 100 µg ampicillin/ml and 1 mM IPTG. […] The assay plates were incubated at room temperature for 2 h, and 50 µl of BrightGlo (Promega) bioluminescence reagent was added to each well. After 10 min incubation, bioluminescence intensity was measured using an Envision multi-label plate reader (Perkin Elmer). Each assay comprised three technical replicates, and the experiment was repeated three times. The fold induction for each MBX-4132 treated sample as compared to the DMSO-only sample was calculated for each technical replicate, and the average and standard deviation of the three technical was calculated. The IC50 was determined using a 4-parameter nonlinear curve fitting algorithm (GraphPad Prism).
Structure (SMILES),Average MLMS t½ [1],MLMS t½ [1],Average solubility [2],Solubility [2],MIC (Escherichia coli),MIC (Neisseria gonorrhoeae),CC50 (HeLa cells [3]),NORMALIZED DATA (Fraction DMSO Control) (HeLa cells [4]; [CMPD] 0.78125 µM),NORMALIZED DATA (Fraction DMSO Control) (HeLa cells [4]; [CMPD] 1.5625 µM),NORMALIZED DATA (Fraction DMSO Control) (HeLa cells [4]; [CMPD] 3.125 µM),NORMALIZED DATA (Fraction DMSO Control) (HeLa cells [4]; [CMPD] 6.25 µM),NORMALIZED DATA (Fraction DMSO Control) (HeLa cells [4]; [CMPD] 12.5 µM),NORMALIZED DATA (Fraction DMSO Control) (HeLa cells [4]; [CMPD] 25 µM),NORMALIZED DATA (Fraction DMSO Control) (HeLa cells [4]; [CMPD] 50 µM),NORMALIZED DATA (Fraction DMSO Control) (HeLa cells [4]; [CMPD] 100 µM),other results
O=C(Nc1nnc(-c2ccc(F)cc2)o1)C1CCCCC1 [MBX-3709],<5 min,<5 min,25 µM,25 µM,28.931 µg/mL,7.233 µg/mL and 3.616 µg/mL,≥ 100 µM,0.9843 Fraction DMSO Control and 0.9839 Fraction DMSO Control and 1.011 Fraction DMSO Control and 0.9844 Fraction DMSO Control and 1.002 Fraction DMSO Control and 0.9797 Fraction DMSO Control,1.013 Fraction DMSO Control and 1.069 Fraction DMSO Control and 1.052 Fraction DMSO Control and 1.032 Fraction DMSO Control and 1.012 Fraction DMSO Control and 1.033 Fraction DMSO Control,1.017 Fraction DMSO Control and 1.012 Fraction DMSO Control and 1.028 Fraction DMSO Control and 1.006 Fraction DMSO Control and 0.9958 Fraction DMSO Control and 1.035 Fraction DMSO Control,0.9952 Fraction DMSO Control and 1.018 Fraction DMSO Control and 1.016 Fraction DMSO Control and 1.009 Fraction DMSO Control and 1.013 Fraction DMSO Control and 1.001 Fraction DMSO Control,1.025 Fraction DMSO Control and 1.013 Fraction DMSO Control and 1.022 Fraction DMSO Control and 1.004 Fraction DMSO Control and 1.002 Fraction DMSO Control and 1.0412 Fraction DMSO Control,1.006 Fraction DMSO Control and 1.033 Fraction DMSO Control and 1.009 Fraction DMSO Control and 1.014 Fraction DMSO Control and 0.9855 Fraction DMSO Control and 1.046 Fraction DMSO Control,0.7814 Fraction DMSO Control and 0.7858 Fraction DMSO Control and 0.7422 Fraction DMSO Control and 0.8088 Fraction DMSO Control and 0.7466 Fraction DMSO Control and 0.7859 Fraction DMSO Control,0.7348 Fraction DMSO Control and 0.7441 Fraction DMSO Control and 0.7211 Fraction DMSO Control and 0.7931 Fraction DMSO Control and 0.7717 Fraction DMSO Control and 0.7681 Fraction DMSO Control,–
O=C(Nc1nnc(-c2ccccc2)o1)c1ccc(Cl)cc1 [MBX-3910],5 min,5 min,12.5 µM,12.5 µM,0.9366 µg/mL,0.2341 µg/mL and 0.1172 µg/mL,42.1 µM and 40.9 µM and > 100 µM and 36.7 µM and 35.8 µM and 41 µM,1.08 Fraction DMSO Control and 1.097 Fraction DMSO Control and 1.14 Fraction DMSO Control and 1.04 Fraction DMSO Control and 1.054 Fraction DMSO Control and 1.05 Fraction DMSO Control,1.101 Fraction DMSO Control and 1.0991 Fraction DMSO Control and 1.152 Fraction DMSO Control and 1.073 Fraction DMSO Control and 1.065 Fraction DMSO Control and 1.0674 Fraction DMSO Control,1.088 Fraction DMSO Control and 1.064 Fraction DMSO Control and 1.13 Fraction DMSO Control and 1.029 Fraction DMSO Control and 1.037 Fraction DMSO Control and 1.067 Fraction DMSO Control,1.079 Fraction DMSO Control (2×) and 1.139 Fraction DMSO Control and 1.051 Fraction DMSO Control and 1.03 Fraction DMSO Control and 1.024 Fraction DMSO Control,1.036 Fraction DMSO Control and 1.056 Fraction DMSO Control and 1.0972 Fraction DMSO Control and 1.011 Fraction DMSO Control and 0.9941 Fraction DMSO Control and 0.9999 Fraction DMSO Control,0.7722 Fraction DMSO Control and 0.7686 Fraction DMSO Control and 0.9894 Fraction DMSO Control and 0.8554 Fraction DMSO Control and 0.8395 Fraction DMSO Control and 0.8785 Fraction DMSO Control,0.4225 Fraction DMSO Control and 0.4189 Fraction DMSO Control and 0.8248 Fraction DMSO Control and 0.6289 Fraction DMSO Control and 0.6212 Fraction DMSO Control and 0.6018 Fraction DMSO Control,0.1921 Fraction DMSO Control and 0.2466 Fraction DMSO Control and 0.6012 Fraction DMSO Control and 0.4687 Fraction DMSO Control and 0.4717 Fraction DMSO Control and 0.4092 Fraction DMSO Control,–
CN(C(=O)c1ccc(Cl)cc1)c1nnc(-c2ccc(F)cc2)o1 [MBX-4076],–,–,<3.1 µM,3.1 µM and <3.1 µM (2×),8.293 µg/mL and 4.147 µg/mL and 2.073 µg/mL,2.073 µg/mL,≥ 100 µM,–,–,–,–,–,–,–,–,[…] (Fraction DMSO Control) (HeLa cells [4]; [CMPD] 0.78125 µM): 1.197 Fraction DMSO Control and 0.943 Fraction DMSO Control and 1.027 Fraction DMSO Control; […] (Fraction DMSO Control) (HeLa cells [4]; [CMPD] 1.5625 µM): 1.13 Fraction DMSO Control and 0.9796 Fraction DMSO Control and 1.003 Fraction DMSO Control; […] (Fraction DMSO Control) (HeLa cells [4]; [CMPD] 3.125 µM): 1.12 Fraction DMSO Control and 0.9889 Fraction DMSO Control and 1.051 Fraction DMSO Control; […] (Fraction DMSO Control) (HeLa cells [4]; [CMPD] 6.25 µM): 1.086 Fraction DMSO Control and 0.9295 Fraction DMSO Control and 1.003 Fraction DMSO Control; […] (Fraction DMSO Control) (HeLa cells [4]; [CMPD] 12.5 µM): 1.084 Fraction DMSO Control and 0.9742 Fraction DMSO Control and 1.016 Fraction DMSO Control; […] (Fraction DMSO Control) (HeLa cells [4]; [CMPD] 25 µM): 1.061 Fraction DMSO Control and 0.9434 Fraction DMSO Control and 0.9966 Fraction DMSO Control; […] (Fraction DMSO Control) (HeLa cells [4]; [CMPD] 50 µM): 1.042 Fraction DMSO Control and 0.8579 Fraction DMSO Control and 0.8811 Fraction DMSO Control; […] (Fraction DMSO Control) (HeLa cells [4]; [CMPD] 100 µM): 0.7388 Fraction DMSO Control and 0.6179 Fraction DMSO Control and 0.6661 Fraction DMSO Control
O=C(Nc1nnco1)c1ccc(Cl)cc1 [MBX-4367],<5 min,<5 min,–,–,22.362 µg/ml and >=22.362 µg/ml,11.181 µg/mL,≥ 100 µM,1.189 Fraction DMSO Control and 0.9321 Fraction DMSO Control and 1.018 Fraction DMSO Control,1.137 Fraction DMSO Control and 0.9966 Fraction DMSO Control and 1.019 Fraction DMSO Control,1.148 Fraction DMSO Control and 1.015 Fraction DMSO Control and 1.071 Fraction DMSO Control,1.124 Fraction DMSO Control and 0.9955 Fraction DMSO Control and 1.053 Fraction DMSO Control,1.13 Fraction DMSO Control and 1.055 Fraction DMSO Control and 1.044 Fraction DMSO Control,1.072 Fraction DMSO Control and 0.9837 Fraction DMSO Control and 1.014 Fraction DMSO Control,1.146 Fraction DMSO Control and 0.9608 Fraction DMSO Control and 0.9961 Fraction DMSO Control,0.9043 Fraction DMSO Control and 0.7595 Fraction DMSO Control and 0.7474 Fraction DMSO Control,IC50 (trans-translation): ≥ 25 µM
O=C(Nc1nnc(-c2ccc(F)cc2)o1)c1ccccc1 [MBXC-4227],–,–,–,–,–,–,≥ 100 µM,0.9526 Fraction DMSO Control and 0.9482 Fraction DMSO Control and 0.9778 Fraction DMSO Control and 0.9357 Fraction DMSO Control and 0.9509 Fraction DMSO Control and 0.9608 Fraction DMSO Control,0.9867 Fraction DMSO Control and 1.034 Fraction DMSO Control and 1.028 Fraction DMSO Control and 0.9667 Fraction DMSO Control and 0.9674 Fraction DMSO Control and 0.99 Fraction DMSO Control,1.005 Fraction DMSO Control and 1.004 Fraction DMSO Control and 0.9736 Fraction DMSO Control and 0.9997 Fraction DMSO Control and 1.016 Fraction DMSO Control and 1.006 Fraction DMSO Control,0.9644 Fraction DMSO Control and 0.9925 Fraction DMSO Control and 0.9938 Fraction DMSO Control and 0.9804 Fraction DMSO Control and 0.9921 Fraction DMSO Control and 0.9636 Fraction DMSO Control,0.8938 Fraction DMSO Control and 0.856 Fraction DMSO Control and 0.8425 Fraction DMSO Control and 0.8596 Fraction DMSO Control and 0.8611 Fraction DMSO Control and 0.8593 Fraction DMSO Control,0.9039 Fraction DMSO Control and 0.9304 Fraction DMSO Control and 0.9129 Fraction DMSO Control and 0.9236 Fraction DMSO Control and 0.9122 Fraction DMSO Control and 0.9801 Fraction DMSO Control,0.7944 Fraction DMSO Control and 0.8334 Fraction DMSO Control and 0.7734 Fraction DMSO Control and 0.7887 Fraction DMSO Control and 0.7582 Fraction DMSO Control and 0.8061 Fraction DMSO Control,0.6978 Fraction DMSO Control and 0.688 Fraction DMSO Control and 0.6756 Fraction DMSO Control and 0.7089 Fraction DMSO Control and 0.7199 Fraction DMSO Control and 0.7396 Fraction DMSO Control,–
